Experiment [1] has as its system filaggrin, loricrin, keratin 1 and keratin 14. The experiment can be described thus: Biomarkers for epithelial tissue damage in back skin by immunofluorescence in imiquimod-induced psoriasis mice. Format: in vivo, Balb/c mice. The following applies: after treatment for a week, versus IMQ group. The text has this: (§1) 6-week-old male Balb/c mice (Kangwon Life Science, Korea) were purchased and acclimated for a week, and psoriasis was induced using 5% imiquimod (Donga ST, Korea). FIG. 1 is a schematic experimental scheme of an animal model. Anti-psoriatic efficacy was investigated using a total of 20 animal models including 5 animals per experimental group.
(§2) In order to determine the effect of the extract of Dianthus superbus L. on psoriasis caused by imiquimod, the experimental animals of Section 2-1 were used. The following four experimental groups were constructed and five animals were randomly assigned to each group:
(§3) The experiment was conducted by inducing psoriasis with IMQ cream and then performing daily application in the amount shown in FIG. 2 to the experimental group and the DEX group. FIG. 3 is an image showing the treatment group for 7 days compared to the psoriasis-induced model as the animal experimental model.
After treatment for a week, back skin tissue was removed from each animal and a paraffin block was then prepared. A paraffin block was cut to 5 μm to prepare a slide sample, and then the change in biomarkers for epithelial tissue damage due to psoriasis was measured through immunofluorescence.

In experiment [2] the test system is psoriasis caused by imiquimod. In words: Epithelial thickness of back skin by H&E staining in imiquimod-induced psoriasis mice. The experiment is classed as in vivo, Balb/c mice. The note with it: after treatment for a week, skin application, compared to the IMQ group.
Source text: as §1, §2, §3
After treatment for a week, the back skin tissue was removed from each animal, and then a paraffin block was prepared. The paraffin block was cut to 5 μm to prepare a slide sample, and then the change in the thickness of the skin tissue was measured through H&E staining.

The structures appear in SMILES notation.

Turning to `C[C@@H]1C[C@H]2[C@@H]3CCC4=CC(=O)C=C[C@]4(C)[C@@]3(F)[C@@H](O)C[C@]2(C)[C@@]1(O)C(=O)CO` [DEX, dexamethasone], in experiment [1], the “expression level of filaggrin” value was “increased”, the “expression level of keratin 1” value is listed as “increased”, the “expression level of keratin 14” value is reported as “increased” and the “expression level of loricrin” value is “increased”. In addition, the “thickness of the epithelial layer” value in experiment [2] is recorded as “decreased thickness”.

Source of the values: patent US11690887B2, “Composition for ameliorating psoriasis symptoms containing extract of Dianthus superbus L” (KOREA INSTITUTE OF SCIENCE AND TECHNOLOGY, priority 2020, dated 2023).
